Measurements: US10981888B2, “Preparation method for tricyclic compounds” (BAYER CROPSCIENCE AKTIENGESELLSCHAFT, priority 2016, dated 2021)
Like-named read-outs stand apart in the source and are kept apart here.

Experiment: determination of log P values by HPLC on a reversed-phase column (C18), EEC Directive 79/831 Annex V.A8
Type: physicochemical
Protocol: ^a) Note regarding the determination of the log P values and mass detection: The determination of the given log P values was carried out in accordance with EEC Directive 79/831 Annex V.A8 by HPLC (High Performance Liquid Chromatography) on a reversed-phase column (C18). […] Mass detection is via an Agilent MSD system. […] Mass detection is via an Agilent MSD system. The mass stated is the peak of the molecular ion+hydrogen [M+H]^+ (molecular ion=sum of the masses of the most abundant natural isotopes of which the molecule consists). ^c) GC/MS (gas chromatography/mass spectrometry) on dimethylsilicone phase. 10 m DB-1, ID=0.18 mm, film thickness=0.4 μm; injector: 250° C., carrier gas flow rate: […] helium; detector: MSD: 280° C., FID: 320° C.; oven temperature: 50° C. (1 minute), 50° C.-320° C. ([…], 40° C./min), 320° C. (6.75 minutes); Kovacs Indices calibrated with alkane mixture.

[1] = reversed-phase C18 HPLC column (Zorbax Eclipse Plus C18); HPLC-MS method a): Zorbax Eclipse Plus C18, acetonitrile (0.1% formic acid) / water (0.09% formic acid), gradient 10% to 95% acetonitrile, 55° C., read-out: log P

Compound	chromatographic logP [1]	chromatographic logP
FC(F)(F)C(F)(c1cc(Cl)c(-n2cccn2)c(Cl)c1)C(F)(F)F [1-[2,6-dichloro-4-(1,1,1,2,3,3,3-heptafluoropropan-2-yl)phenyl]-1H-pyrazole]	4.22	–
FC(F)(F)C(F)(c1cc(Cl)c(-n2cc(I)cn2)c(Cl)c1)C(F)(F)F [1-[2,6-dichloro-4-(1,1,1,2,3,3,3-heptafluoropropan-2-yl)phenyl]-4-iodo-1H-pyrazole]	5.17	–
FC(F)(F)c1cc(C(F)(C(F)(F)F)C(F)(F)F)cc(Br)c1-n1cccn1 [1-[2-bromo-4-(1,1,1,2,3,3,3-heptafluoropropan-2-yl)-6-(trifluoromethyl)phenyl]-1H-pyrazole]	4.42	–
FC(F)(F)c1cc(C(F)(C(F)(F)F)C(F)(F)F)cc(Cl)c1-n1cccn1 [1-[2-chloro-4-(1,1,1,2,3,3,3-heptafluoropropan-2-yl)-6-(trifluoromethyl)phenyl]-1H-pyrazole]	4.38	–
FC(F)Oc1cc(C(F)(C(F)(F)F)C(F)(F)F)cc(Cl)c1-n1cccn1 [1-[2-chloro-6-(difluoromethoxy)-4-(1,1,1,2,3,3,3-heptafluoropropan-2-yl)phenyl]-1H-pyrazole]	4.04	–
FC(F)Oc1cc(C(F)(C(F)(F)F)C(F)(F)F)cc(Cl)c1-n1cc(I)cn1 [1-[2-chloro-6-(difluoromethoxy)-4-(1,1,1,2,3,3,3-heptafluoropropan-2-yl)phenyl]-4-iodo-1H-pyrazole]	4.82	–
Cc1cc(C(F)(C(F)(F)F)C(F)(F)F)cc(C)c1-n1cc(I)cn1 [1-[4-(1,1,1,2,3,3,3-heptafluoropropan-2-yl)-2,6-dimethylphenyl]-4-iodo-1H-pyrazole]	5.2	–
Cc1cc(C(F)(C(F)(F)F)C(F)(F)F)cc(C(F)(F)F)c1-n1cccn1 [1-[4-(1,1,1,2,3,3,3-heptafluoropropan-2-yl)-2-methyl-6-(trifluoromethyl)phenyl]-1H-pyrazole]	4.4	–
CN(C(=O)c1cc(-c2cnn(-c3c(Cl)cc(C(F)(C(F)(F)F)C(F)(F)F)cc3OC(F)(F)F)c2)cnc1Cl)C1CC1 [2-Chloro-5-{1-[2-chloro-4-(1,1,1,2,3,3,3-heptafluoropropan-2-yl)-6-(trifluoromethoxy)phenyl]-1H-pyrazol-4-yl}-N-cyclopropyl-N-methylnicotinamide]	4.56	–
CN(C(=O)c1cc(-c2cnn(-c3c(Cl)cc(C(F)(C(F)(F)F)C(F)(F)F)cc3C(F)(F)F)c2)cnc1Cl)C1CC1 [2-Chloro-5-{1-[2-chloro-4-(1,1,1,2,3,3,3-heptafluoropropan-2-yl)-6-(trifluoromethyl)phenyl]-1H-pyrazol-4-yl}-N-cyclopropyl-N-methylnicotinamide]	4.46	–
O=C(NC1CC1)c1cc(-c2cnn(-c3c(Cl)cc(C(F)(C(F)(F)F)C(F)(F)F)cc3C(F)(F)F)c2)cnc1Cl [2-Chloro-5-{1-[2-chloro-4-(1,1,1,2,3,3,3-heptafluoropropan-2-yl)-6-(trifluoromethyl)phenyl]-1H-pyrazol-4-yl}-N-cyclopropylnicotinamide]	4	–
CN(C(=O)c1cc(-c2cnn(-c3c(Cl)cc(C(F)(C(F)(F)F)C(F)(F)F)cc3Cl)c2)cnc1Cl)C1CC1 [2-Chloro-N-cyclopropyl-5-{1-[2,6-dichloro-4-(1,1,1,2,3,3,3-heptafluoropropan-2-yl)phenyl]-1H-pyrazol-4-yl}-N-methylnicotinamide]	4.36	–
O=C(NC1CC1)c1cc(-c2cnn(-c3c(Cl)cc(C(F)(C(F)(F)F)C(F)(F)F)cc3OC(F)(F)F)c2)cnc1Cl [2-chloro-5-{1-[2-chloro-4-(1,1,1,2,3,3,3-heptafluoropropan-2-yl)-6-(trifluoromethoxy)phenyl]-1H-pyrazol-4-yl}-N-cyclopropylnicotinamide]	4.28	–
CC1(C)OB(c2cnc(Cl)c(C(=O)NC3CC3)c2)OC1(C)C [2-chloro-N-cyclopropyl-5-(4,4,5,5-tetramethyl-1,3,2-dioxaborolan-2-yl)nicotinamide]	–	0.9
O=C(NC1CC1)c1cc(-c2cnn(-c3c(Br)cc(C(F)(C(F)(F)F)C(F)(F)F)cc3OC(F)(F)F)c2)cnc1Cl [5-{1-[2-Bromo-4-(1,1,1,2,3,3,3-heptafluoropropan-2-yl)-6-(trifluoromethoxy)phenyl]-1H-pyrazol-4-yl}-2-chloro-N-cyclopropylnicotinamide]	4.25	–
CN(C(=O)c1cc(-c2cnn(-c3c(Br)cc(C(F)(C(F)(F)F)C(F)(F)F)cc3C(F)(F)F)c2)cnc1Cl)C1CC1 [5-{1-[2-bromo-4-(1,1,1,2,3,3,3-heptafluoropropan-2-yl)-6-(trifluoromethyl)phenyl]-1H-pyrazol-4-yl}-2-chloro-N-cyclopropyl-N-methylnicotinamide]	4.28	–

Now from value to molecule:

chromatographic logP [1]	chromatographic logP	Compound
5.22	–	FC(F)(F)c1cc(C(F)(C(F)(F)F)C(F)(F)F)cc(Br)c1-n1cc(I)cn1 [1-[2-bromo-4-(1,1,1,2,3,3,3-heptafluoropropan-2-yl)-6-(trifluoromethyl)phenyl]-4-iodo-1H-pyrazole]
5.19	–	FC(F)(F)c1cc(C(F)(C(F)(F)F)C(F)(F)F)cc(Cl)c1-n1cc(I)cn1 [1-[2-chloro-4-(1,1,1,2,3,3,3-heptafluoropropan-2-yl)-6-(trifluoromethyl)phenyl]-4-iodo-1H-pyrazole]
4.3	–	Cc1cc(C(F)(C(F)(F)F)C(F)(F)F)cc(C)c1-n1cccn1 [1-[4-(1,1,1,2,3,3,3-heptafluoropropan-2-yl)-2,6-dimethylphenyl]-1H-pyrazole]
3.81	–	N#CC1(NC(=O)c2cc(-c3cnn(-c4c(Cl)cc(C(F)(C(F)(F)F)C(F)(F)F)cc4Cl)c3)cnc2Cl)CC1 [2-Chloro-N-(1-cyanocyclopropyl)-5-{1-[2,6-dichloro-4-(1,1,1,2,3,3,3-heptafluoropropan-2-yl)phenyl]-1H-pyrazol-4-yl}nicotinamide]
3.87	–	Cc1cc(C(F)(C(F)(F)F)C(F)(F)F)cc(C)c1-n1cc(-c2cnc(Cl)c(C(=O)NC3(C#N)CC3)c2)cn1 [2-Chloro-N-(1-cyanocyclopropyl)-5-{1-[4-(1,1,1,2,3,3,3-heptafluoropropan-2-yl)-2,6-dimethylphenyl]-1H-pyrazol-4-yl}nicotinamide]
4.31	–	CN(C(=O)c1cc(-c2cnn(-c3c(Cl)cc(C(F)(C(F)(F)F)C(F)(F)F)cc3Cl)c2)cnc1Cl)C1(C#N)CC1 [2-chloro-N-(1-cyanocyclopropyl)-5-{1-[2,6-dichloro-4-(1,1,1,2,3,3,3-heptafluoropropan-2-yl)phenyl]-1H-pyrazol-4-yl}-N-methylnicotinamide]
5.07	–	FC(F)(F)C(F)(c1cc(Cl)c(-n2cc(Br)cn2)c(Cl)c1)C(F)(F)F [4-bromo-1-[2,6-dichloro-4-(1,1,1,2,3,3,3-heptafluoropropan-2-yl)phenyl]-1H-pyrazole]
